Source: patent US11998591B2, “Method of treating diabetes type 2 by administering ultrarapid acting insulin” (MannKind Corporation, priority 2008, dated 2024)
Like-named read-outs stand apart in the source and are kept apart here.

Columns and labels:
patients = settings: gastrointestinal side-effects being a primary issue; cited from earlier work
[1] = cited from earlier work
[2] = test system: subjects with type 1 diabetes; assay: 52-week clinical trial: basal insulin + prandial TI Inhalation Powder vs basal insulin + SC insulin aspart; assay type: in vivo, human
From the text: A Prospective, Multi-Center, Open-Label, Randomized, Controlled Clinical Trial Comparing the Efficacy and Safety in Subjects with Type 1 Diabetes Receiving SC Basal Insulin and Prandial Inhalation of Insulin-FDKP Versus SC Basal and Prandial Insulin Over a 52-Week Treatment Period and a 4-Week Follow-Up
This was a prospective, multi-country, multicenter, open label, randomized, controlled clinical trial comparing glycemic control in subjects with type 1 diabetes receiving basal insulin and prandial insulin-FDKP (TI) Inhalation Powder (TI Inhalation Powder group) with subjects receiving basal insulin and SC rapid-acting insulin aspart (comparator group). This study included a 52-week treatment phase and a 4-week follow-up phase. During the 4-week follow-up phase, pulmonary function and select clinical laboratory assessments were scheduled.
The study began with enrollment at Week −3. Subjects received a complete battery of safety and eligibility assessments, including HbA1c and fasting plasma glucose (FPG).
At Week −1, subjects were randomized to one of the following 2 treatments: • Basal insulin+prandial TI Inhalation Powder • Basal insulin+prandial SC rapid-acting insulin
At Week −1, subjects again completed the first three components of the Insulin Treatment Questionnaire (ITQ) for the purpose of assessing test-retest reliability only). After completing the questionnaire, subjects randomized to the TI Inhalation Powder group were trained on the MEDTONE® Inhaler using TECHNOSPHERE®/insulin (insulin-FDKP) inhalation powder; subjects in the comparator group were trained in the use of the NOVOLOG® pens; all subjects were trained in administration of LANTUS®. Additionally, all subjects were trained on a blood glucose monitoring (HBGM) meter provided at the beginning of the trial and diary and received diabetes education. Any training was repeated at Week 0, if needed.
At the beginning of the treatment phase, subjects had several titration/dose evaluation visits to adjust insulin therapy. Titration visits occurred once a week for the first 4 weeks. During Weeks 4 through 10, there were three telephone “visits” (at Week 6, Week 8, and Week 10) to titrate dose, if necessary. However, dose titration was allowed throughout the trial.
All subjects completed a 7-point blood glucose profile on any 3 days during the week immediately preceding each visit from Week 0 to Week 52. The 7 time points included samples from before breakfast and 2 hours after breakfast, before the mid-day meal and 2 hours after the mid-day meal, before the evening meal and 2 hours after the evening meal and at bedtime (7 time points a day, over 3 days). These blood glucose (BG) values were recorded in the HBGM diary that was collected at clinic visits. The diaries for Weeks 4 through 10 (during dose titration) which were discussed over the telephone were collected at the next office visits.
A meal challenge test was performed at Week 4 (during dose titration), Week 26, and Week 52. Meal challenge venous blood sampling times were: −30, 0, 30, 60, 90, 105, 120, 180, 240, 300, and 360 minutes. Blood glucose (BG) was also measured using HBGM glucose meters to aid the Investigator in treatment decisions and values were obtained at −30, 0, 60, and 120 minutes during the meal challenge.
Treatments for glycemic control used in the trial were the following: prandial insulin-FDKP (TI) inhalation powder, prandial insulin aspart, and basal insulin glargine. Subjects assigned to the TI Inhalation Powder group (TI Inhalation Powder in combination with basal insulin therapy) received sc basal insulin glargine (LANTUS®) once daily (at bedtime) and inhaled TI Inhalation Powder 3 to 4 times a day, immediately before main meals or a snack as based upon clinical need. Adjustment of the TI Inhalation Powder dose and frequency of use to greater than 3 times a day was at the discretion of the Investigator. […]

[3] = test system: subjects with type 2 diabetes; assay type: in vivo, human
Method: The insulin-FDKP formulation is administered to the subjects by oral inhalation using a MEDTONE® dry powder inhaler (MannKind Corp.). Following the completion of the meal challenge, the data was analyzed as per the statistical analysis plan. […] The study was amended (A1) and included 12 subjects (10 were reenrolled from the first meal challenge), and only two treatments, which were 10 U lispro and 60 and 90 U TI. The doses were selected based on the relative bioavailability observed following the first meal challenge (OP), where under an assumption of linear kinetics, 10 U lispro and 60 U TI would result in similar exposure. The 90 U dose group was included to assess the effect of the highest dose group of TI studied in Phase 3 trials. Six of the 12 subjects received 60 U TI and the other 6 subjects received 90 U TI. All 12 subjects received 10 U lispro in a crossover fashion. Methods and results below are described in terms of the Original Protocol (OP), which includes the meal challenge in 18 subjects with three treatments (EXUBERA®, lispro and TI) and Amendment 1 (A1), which includes 12 subjects treated with only TI and lispro. […] The subjects were screened and evaluated before, during and after the experiments and their data analyzed as described below. Subjects were selected based on several key inclusion criteria, including, male and female, having ≥18 and ≤70 years of age with clinical diagnosis of type 2 diabetes mellitus for ≥12 months. The subjects selected for the study also had stable anti-diabetic regimen with insulin for the previous 3 months; HbA1c ≤8.5%; Body Mass Index (BMI) between ≤34 kg/m^2 and ≥25 kg/m^2; urine cotinine ≤100 ng/mL; […] Criteria for exclusion from the study also included unstable diabetes control and/or evidence of serious complications of diabetes (e.g., autonomic neuropathy); serum creatinine >1.8 mg/dL in female subjects and >2.0 mg/dL in male subjects. Other clinically important pulmonary disease was confirmed by documented history or pulmonary function testing. Under OP, the study was planned to be a randomized, open label, 3-way cross-over study. […] At this analysis all patients at least had completed the meal challenge visits and only those data have been used. The screening visit(s) (V1) occurred 1 to 21 days before the first treatment visit (V2) with 7 to 21 days elapsing between treatment-visits (V2, V3, and V4) for the meal challenge test. A minimum of 8 weeks elapsed between V4 and the next treatment visit, (V6). An additional safety visit (V5) was scheduled 1-3 days prior to the first of 3 glucose clamp procedures (V6). The glucose clamp procedure occurred at 3 visits, Visits V6, V7, and V8, with 7 to 21 days elapsing between the visits. […] Each treatment visit during the meal challenge had the subjects hospitalized in the clinical unit the night before initiation of treatment. […] Each subject followed the same randomization order for the glucose-clamp procedures as for the meal challenge tests. During the study, periodic blood draws for determination of pharmacokinetic and/or pharmacodynamic parameters, and safety were taken beginning at 12 hours prior to onset of the treatment regimens and meal challenge, and thereafter for a period of 8 hours. […] Meal Challenge Test: BOOST PLUS® (12 fl. oz.) consisting of 67.5 g carbohydrate, 21 g protein, 21 g fat, energy content 540 kcal was used for the meal challenge test. The BOOST PLUS® was enriched with U-^13C-glucose to determine the amount of absorbed glucose. Concurrent enriched continuous infusion of 6,6-^2H2 glucose was used to assess endogenous glucose production EGP. […] Under OP, the dose for insulin lispro was selected based on information obtained from the regulatory label. The dose selected for EXUBERA® was obtained by means of back calculation of the most commonly used dose information presented to the FDA Advisory Committee in the EXUBERA® Briefing Document. […]

[4] = test system: subjects with type 2 diabetes; assay type: in vivo, human; remark: listed apart in the source
Method: Following the completion of the meal challenge, the data was analyzed as per the statistical analysis plan. […] The study was amended (A1) and included 12 subjects (10 were reenrolled from the first meal challenge), and only two treatments, which were 10 U lispro and 60 and 90 U TI. The doses were selected based on the relative bioavailability observed following the first meal challenge (OP), where under an assumption of linear kinetics, 10 U lispro and 60 U TI would result in similar exposure. The 90 U dose group was included to assess the effect of the highest dose group of TI studied in Phase 3 trials. Six of the 12 subjects received 60 U TI and the other 6 subjects received 90 U TI. All 12 subjects received 10 U lispro in a crossover fashion. Methods and results below are described in terms of the Original Protocol (OP), which includes the meal challenge in 18 subjects with three treatments (EXUBERA®, lispro and TI) and Amendment 1 (A1), which includes 12 subjects treated with only TI and lispro. […] The subjects were screened and evaluated before, during and after the experiments and their data analyzed as described below. Subjects were selected based on several key inclusion criteria, including, male and female, having ≥18 and ≤70 years of age with clinical diagnosis of type 2 diabetes mellitus for ≥12 months. The subjects selected for the study also had stable anti-diabetic regimen with insulin for the previous 3 months; HbA1c ≤8.5%; Body Mass Index (BMI) between ≤34 kg/m^2 and ≥25 kg/m^2; urine cotinine ≤100 ng/mL; […] Criteria for exclusion from the study also included unstable diabetes control and/or evidence of serious complications of diabetes (e.g., autonomic neuropathy); serum creatinine >1.8 mg/dL in female subjects and >2.0 mg/dL in male subjects. Other clinically important pulmonary disease was confirmed by documented history or pulmonary function testing. Under A1, the study was planned to be a randomized, open label, 2-way cross-over study. […] Blood glucose concentrations were measured at regular intervals from arterialized venous blood samples. […]

[5] = 52 weeks, with basal insulin glargine
[6] = subjects with type 1 diabetes, prescribing information
[7] = OP: 45 U insulin-FDKP, 12 U SC lispro, 4 mg EXUBERA, FIG. 6

CN(C)C(=N)N=C(N)N [metformin]
Patients who cannot tolerate the drug, at least at dosages adequate for acceptable glycemic control (patients): Approximately 30%

Regular human insulin: regular human insulin preparations for subcutaneous injection, considered short acting
Duration of significant elevation or activity (as long as) ([1]; subcutaneous injection): 10 to 12 h
Time to reach maximal activity ([1]; subcutaneous injection): 2 to 4 h
Time to reach maximal blood insulin concentration ([1]; subcutaneous injection): 1 to 2 h

insulin aspart: SC rapid-acting insulin analog (NOVOLOG®), comparator in Example 2
Mean decrease in fasting plasma glucose (FPG) from baseline ([2]; 52-week treatment period, with basal insulin glargine): 23.4 (SD 103.1) mg/dL
Mean fasting plasma glucose (FPG) at the end of the treatment period [2, 5]: 161.3 (SD 68.2) mg/dL
Percentage of subjects whose HbA1c level decreased to ≤6.5% [2, 5]: 7.31%
Percentage of subjects whose HbA1c level decreased to ≤7.0% [2, 5]: 15.98%
Percentage of subjects whose HbA1c level decreased to ≤8.0% [2, 5]: 56.16%
HbA1c ([2]; Week 14, with basal insulin glargine): 8.07 (SD 1.09) %
Average body weight gain ([2]; over the 52-week treatment period): 1.4 kg
Median Tmax [1, 6]: 0.667 to 0.833 h

insulin glulisine: rapid acting insulin analog (APIDRA®)
Range of Tmax ([1]; both type 1 and type 2 populations, prescribing information): 0.667 to 2 h
Median Tmax [1, 6]: 1 h
Median Tmax ([1]; subjects with type 2 diabetes, prescribing information): 1.67 h

insulin lispro: rapid acting insulin analog, subcutaneously administered (HUMALOG®, Eli Lilly & Co.)
Time of peak inhibition of endogenous glucose production after treatment ([3]; OP: 45 U insulin-FDKP, 12 U SC lispro, 4 mg EXUBERA, FIG. 5): about 80 minutes
Time after dosing at which glucose disappearance rate peaked [3, 7]: about 120 minutes
Time post dosing at which glucose disappearance rate was substantial / departed from baseline [3, 7]: about 30 minutes
Time post-treatment at which (further) glucose infusion was needed to remain above 90 mg/dL ([3]; OP: 45 U insulin-FDKP, 12 U SC lispro, 4 mg EXUBERA, after the initial phase): ~3 h
Median tmax of insulin concentration ([3]; human, in vivo, sc, 4 mg): 1.25 h
Total insulin exposure, greater than following either 45 U insulin-FDKP (TI) or 4 mg EXUBERA ([3]; in vivo): approximately 40%
Time of peak inhibition of endogenous glucose production following dosing ([4]; 10 U lispro SC, FIG. 10): about 100 minutes
Time after dosing at which glucose disappearance rate peaked ([4]; 10 U lispro SC, FIG. 11): about 100 minutes
Median tmax of insulin concentration ([4]; human, in vivo, sc): 1 h
Tmax ([1]; prescribing information): 0.5 to 1.5 h
